Experimental findings from US20040131567A1 (priority 2002, published 2004) are described below.

A value given as a limit tells only on which side of the number the result lay.

What is called zone of inhibition is the extent of the growth-free halo in a diffusion test.

For series [1], the system named is Bacillus anthracis Stearns strain. Type of series: cell-based.
For series [2], the system named is Bacillus anthracis Ames strain. Type of series: cell-based.
Series [3] deals with Paenibacillus polymyxa, Bacillus licheniformis, Bacillus subtilis, Bacillus sphaericus, Bacillus cereus and a wild Bacillus strain. Type of series: cell-based, Bacillus species. The conditions noted are these: for average zone of inhibition: 3 replicate assays.
Series [4] concerns psoriasis. The conditions noted are these: in vivo.
Series [5] concerns dry/cracking and scaly elbows. Type of series: in vivo, human. The conditions noted are these: regimen tried prior to the inventive composition.
Series [6] relates to Staphylococcus aureus. Type of series: cell-based. Set-up: key: NG = no growth. The conditions noted are these: S. aureus >10^5 CFU/ml inoculated into 2 ml d-limonene.
In series [7] the test system is Staphylococcus epidermidis. It counts as cell-based. Set-up: key: NG = no growth. The conditions noted are these: S. epidermidis >10^5 CFU/ml inoculated into 2 ml d-limonene.
Series [8] has as its system Enterococcus faecalis. Type of series: cell-based. The conditions noted are these: E. faecalis >10^5 CFU/ml inoculated into 2 ml d-limonene. Set-up: key: NG = no growth.
Series [9] deals with Enterococcus faecium. Type of series: cell-based. On the set-up: key: NG = no growth. The conditions noted are these: E. faecium >10^5 CFU/ml inoculated into 2 ml d-limonene.
The subject of series [10] is Escherichia coli. It counts as cell-based. Set-up: key: NG = no growth. The conditions noted are these: E. coli >10^5 CFU/ml inoculated into 2 ml d-limonene.
The subject of series [11] is Enterobacter cloacae. Type of series: cell-based. Set-up: key: NG = no growth.
In series [12] the test system is Klebsiella pneumoniae. It counts as cell-based. On the set-up: key: NG = no growth. The conditions noted are these: K. pneumoniae >10^5 CFU/ml inoculated into 2 ml d-limonene.
The test system of series [13] is Serratia marcescens. Type of series: cell-based. On the set-up: key: NG = no growth.
Series [14] relates to Pseudomonas aeruginosa. Type of series: cell-based. The conditions noted are these: P. aeruginosa >10^5 CFU/ml inoculated into 2 ml d-limonene. On the set-up: key: NG = no growth.
For series [15], the system named is Acinetobacter baummii/haemolyticus. Type of series: cell-based. Set-up: key: NG = no growth. The conditions noted are these: Ac. baum/haemo >10^5 CFU/ml inoculated into 2 ml d-limonene.
Series [16] has as its system Stenotrophomonas maltophila. Type of series: cell-based. On the set-up: key: NG = no growth.
For series [17], the system named is gram-positive and gram-negative pathogens. Type of series: cell-based.
Series [18] deals with Staphylococcus aureus, Staphylococcus epidermidis, Streptococcus pyogenes, Streptococcus mutans, other beta hemolytic streptococci, Entercoccus faecalis …. It counts as cell-based. The conditions noted are these: in vitro.
The test system of series [19] is Escherichia coli, Enterobactor cloacae, Klebsiella pneumoniae, Serratia marcescens, Pseudomonas aeruginosa, Acinetobacter baummii/haemolyticus, Paenibacillus …. It counts as cell-based. The conditions noted are these: in vitro.
Series [20] relates to Bacillus licheniformis, B. sphaericus, Bacillus cereus, Bacillus subtilus, Bacillus anthracis (Stearns and Ames strains). It counts as cell-based, Bacillus species.

`O=[N+]([O-])[O-].[Ag+]` [AgNO3, silver nitrate]: in series [1], the “zone of inhibition (average inhibition zone)” value came to 18 mm. For the same compound, the zone of inhibition in [2] is recorded as 16 mm. In series [3] (six Bacillus strains), the “average zone of inhibition” value is reported as 16 mm.

As for `O=C(O)c1cn(C2CC2)c2cc(N3CCNCC3)c(F)cc2c1=O` [CIPRO], in [4], the “effect of earlier treatments on the psoriasis” value (from here on “effect of earlier treatments”) was “Neither treatment was effective” and the side effects entry is “unpleasant side effects”.

Regarding `NC(=O)N/N=C/c1ccc([N+](=O)[O-])o1` [Furacin, nitrofurazone], in [3] (six Bacillus strains), the “average zone of inhibition” value is listed as 35 mm.

With `OCl` [NaOCl, sodium hypochlorite], the “susceptibility of the strain to the product” value in [1] was “susceptible to all products tested except”. Further, the zone of inhibition entry in series [2] was “no zones of inhibition”. The compound also had an average zone size in [3] (only the inhibited strains P. Polymyxa, B. sphaericus and B. cereus) of 16 mm. Besides, the “inhibition of the Bacillus strains (which strains)” value in [3] (six Bacillus strains) was “only inhibited P. Polymyxa, B. sphaericus and B. cereus”.

Regarding `COc1cc(C)c(/C=C/C(C)=C/C=C/C(C)=C/C(=O)O)c(C)c1C` [SORIATANE], in [4], the “effect of earlier treatments” value is given as “Neither treatment was effective” and the side effects result is on record as “unpleasant side effects”.

`NCc1ccc(S(N)(=O)=O)cc1` [mafenide acetate]: the “susceptibility of the strain to the product” value in series [1] and in series [2] was “susceptible” throughout. In addition, in series [3] (six Bacillus strains), the “average zone of inhibition” value stood at 36 mm.

Take Vitamin E: in series [5], the “effect of earlier regimen on the condition” value was “no improvement”. For the same compound, in [4], the “effect of earlier treatments” value is listed as “no results”.

As for d-limonene, the “Growth at 24 hr” value is “NG*” in series [6] (24 hr); “NG” in series [7] (24 hr); “NG” in series [8] (24 hr); “NG” in [9] (24 hr); “NG” in series [10] (24 hr); “NG” in series [11]. Besides, the “Growth at 24 hr” value in series [12] (24 hr) is listed as “NG”; in [13] it was “NG*”; in series [14] (24 hr) it was “NG”; in series [15] (24 hr), “NG”; in series [16], “NG”. In addition, the “Growth at 48 hr” value in series [6] (48 hr), in series [7] (48 hr), in [8] (48 hr), in series [9] (48 hr), in series [10] (48 hr) and in series [11] was “NG” throughout. The “Growth at 48 hr” value in series [12] (48 hr), in [13], in series [14] (48 hr), in [15] (48 hr) and in [16] was “NG” throughout. For the same compound, the “Growth at 72 hr” value in series [6] (72 hr), in series [7] (72 hr), in series [8] (72 hr), in series [9] (72 hr), in series [10] (72 hr) and in series [11] was “NG” throughout. In addition, the “Growth at 72 hr” value in series [12] (72 hr), in [13], in series [14] (72 hr), in series [15] (72 hr) and in series [16] was “NG” each time. The “effectiveness in killing or inhibiting growth of gram-positive and gram-negative bacteria” value in [17] is given as “effective in killing or inhibiting the growth”. Further, in series [17], the “time within which all pathogens tested were effectively eradicated” value is at most 24 h. Moreover, the “zone of inhibition (average inhibition zone)” value in [1] was 30 mm. Besides, in series [2], the zone of inhibition is recorded as 21 mm. Further, in series [3] (six Bacillus strains), the “average zone of inhibition” value amounted to 21 mm. The “effectiveness in eradicating gram-positive pathogens” value in series [18] is “effective in eradicating”. The “effectiveness in eradicating gram-negative pathogens” value in series [19] was “effective in eradicating”. Besides, the “effectiveness in eradicating Bacillus species” value in series [20] was “effective in eradicating”.
